# Results taken from patent US20230321140A1, “MULTIPLE MEDIATORS TARGETED MULTIFUNCTIONAL NANOPARTICLES AND USES THEREOF” (The Trustees of Columbia University in the City of New York, priority 2022, published 2023).
# Assays:
# [1] = system: E. coli; assay: Antibacterial effect (OD 600 nm); assay type: cell-based, Escherichia coli; conditions: 6 h and 12 h
# Protocol: E. coli was used to investigate the anti-bacterial effect of NPs. E. coli diluted in Luria-Bertani liquid medium were seeded in a 96-well plate at a density of 10^6/mL and were treated with NPs at different concentrations. After 6 h and 12 h of incubation with NPs at 37° C., the proliferation of bacteria was determined with a multiwell plate reader by measuring the OD at 600 nm.
# [2] = system: calf thymus DNA; assay: PicoGreen DNA binding affinity assay; conditions: TE buffer without FBS; calf thymus DNA 0.5 μg/mL
# Protocol: FIGS. 2A-B show DNA binding affinity of NPs at different NP:DNA mass ratios (see legend) in TE buffer without Fetal Bovine Serum (FBS) (A) and with 10% FBS (B). [Calf thymus DNA]=0.5 μg/mL. (C) Cytotoxicity of NPs to RAW 264.7 cells. (D) Colocalization of FITC-labeled TA-Zn-Gen NPs and Cy5-labeled CpG in lysosomes (CLSM images). Scale bar, 10 μm. Quant-iT PicoGreen (12.5 μL) and calf thymus DNA ([…], 25 μL) were mixed with 1×TE buffer (10 mL) in the dark. NPs at different concentrations in 100 μL together with 100 μL of the above solution were added to a 96-well black plate and incubated at 37° C. for 30 min. The fluorescence intensity of the Picogreen-DNA complex at 520 nm was measured with a multiwell plate reader via excitation at 490 nm.
Compound,"antibacterial activity, NPs versus free components [1]",DNA binding affinity [2]
O=C(OC[C@H]1O[C@@H](OC(=O)c2cc(O)c(O)c(OC(=O)c3cc(O)c(O)c(O)c3)c2)[C@H](OC(=O)c2cc(O)c(O)c(OC(=O)c3cc(O)c(O)c(O)c3)c2)[C@@H](OC(=O)c2cc(O)c(O)c(OC(=O)c3cc(O)c(O)c(O)c3)c2)[C@@H]1OC(=O)c1cc(O)c(O)c(OC(=O)c2cc(O)c(O)c(O)c2)c1)c1cc(O)c(O)c(OC(=O)c2cc(O)c(O)c(O)c2)c1 [tannic acid],slight antibacterial activity at a high concentration,also exhibited DNA binding
gentamicin,potent concentration-dependent antibacterial effect,
